The source of these data is patent US8309545B2, “Benzofuran potassium channel blockers and uses thereof” (Bionomics Limited, priority 2006, dated 2012).

pEC50: −log10 of the molar value.

As usually defined, the pEC50 is the negative decadic logarithm of the EC50, by convention in mol/L. Lower therefore signals a high EC50.

In the assay the target is T1, human Kv1.3 ion channel (Homo sapiens, UniProt P22001).
T1 construct: Human Jurkat cells (which endogenously express hKv1.3) were used in place of rat L929 cells; endogenous in cells; host or cells: Human Jurkat cells
T1 sequence (P22001 whole entry): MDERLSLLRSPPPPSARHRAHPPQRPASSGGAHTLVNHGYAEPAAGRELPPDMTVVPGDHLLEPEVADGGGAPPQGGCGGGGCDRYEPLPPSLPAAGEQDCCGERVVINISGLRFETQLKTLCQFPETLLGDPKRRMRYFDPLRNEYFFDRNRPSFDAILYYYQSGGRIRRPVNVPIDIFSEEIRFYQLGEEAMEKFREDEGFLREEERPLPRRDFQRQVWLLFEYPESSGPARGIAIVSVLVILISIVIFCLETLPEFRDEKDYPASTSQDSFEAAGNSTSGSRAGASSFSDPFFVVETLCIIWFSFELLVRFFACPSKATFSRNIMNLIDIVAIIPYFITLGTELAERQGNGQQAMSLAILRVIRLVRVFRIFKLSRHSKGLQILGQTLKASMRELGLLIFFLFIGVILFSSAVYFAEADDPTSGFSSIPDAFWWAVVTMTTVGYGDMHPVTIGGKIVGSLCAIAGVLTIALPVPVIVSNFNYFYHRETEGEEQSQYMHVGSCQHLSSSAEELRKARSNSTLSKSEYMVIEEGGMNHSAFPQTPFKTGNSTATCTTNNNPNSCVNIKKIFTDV
The experiment in a line: Inhibition of Kv1.3 currents, planar patch clamp in Jurkat cells. The conditions noted are these: Human Jurkat cells (endogenous hKv1.3), averaged dose response data from 3 or more cells. Type of assay: cell-based. The procedure: Potency of compounds to inhibit the human Kv1.3 ion channel were determined as follows:
EC50 values for inhibition of Kv1.3 currents were determined by the method according to Schmitz et al (2005) Molecular Pharmacology 68, 1254-1270 with the following differences: • 1. Human Jurkat cells (which endogenously express hKv1.3) were used in place of rat L929 cells. • 2. All electrophysiology was performed using planar patch clamp (Port-A-Patch, Nanion Technologies Gmbh, Munich) in contrast to conventional patch clamp. • 3. EC50 values shown were determined from averaged dose response data obtained from 3 or more cells.
On the technique in general: The patch-clamp technique gives a direct electrical read-out from membranes.
On to `CC(=O)c1c(O)c(OCCOc2ccc(F)cc2)c2occc2c1C` [Example 43c, 5-Acetyl-7-(2-(4-fluorophenoxy)-ethoxy)-6-hydroxy-4-methylbenzofuran], for which the negative-log EC50 (pEC50) is 6.02. Compound `CC(=O)c1c(OCCN2CCOCC2)c(OCCOc2ccc(F)cc2)c2occc2c1C` [Example 43e, 1-[7-[2-(4-Fluoro-phenoxy)-ethoxy]-4-methyl-6-(2-morpholin-4-yl-ethoxy)-benzofuran-5-yl]-ethanone] gave a pEC50 of 6.54. On to `CC(=O)c1c(OCCc2ccccn2)c(OCCC(C)c2ccc(F)cc2)c2occc2c1C` (stereo not drawn) [Example 44d, 5-Acetyl-7-(3-[4-fluorophenyl]butoxy)-4-methyl-6-(2-pyridin-2-yl-ethoxy)benzofuran], for which the pEC50 was 7.66. Compound `CC(=O)c1c(OCCNC2CCCC2)c(OCCC(C)c2ccc(F)cc2)c2occc2c1C` (stereo not drawn) [Example 45b, 5-Acetyl-7-(3-[4-fluorophenyl]butoxy)-4-methyl-6-(2-Cyclopentylamino-ethoxy)benzofuran] gave a pEC50 of 7.37.

The compound `CC(=O)c1c(O)c(OCCCc2ccc(F)cc2)c2occc2c1C` [Example 47a, 5-Acetyl-7-(3-(4-fluorophenyl)propoxy)-6-hydroxy-4-methylbenzofuran] had a pEC50 of 6.27.

The compound `CC(=O)c1c(OCCN2CCOCC2)c(OCCCc2ccc(F)cc2)c2occc2c1C` [Example 47b, 5-Acetyl-7-(3-(4-fluorophenyl)propoxy)-4-methyl-6-(2-morpholinoethoxy)benzofuran] showed a pEC50 of 7.13.

As to `CC(=O)c1c(OCCNC2CCCC2)c(OCCCc2ccc(F)cc2)c2occc2c1C` [Example 48, 1-[6-(2-Cyclopentylamino-ethoxy)-4-methyl-7-(3-(4-fluoro-phenyl)-propoxy)-benzofuran-5-yl]-ethanone], the pEC50 is 7.33.

For `CC(=O)c1c(O)c(OCCC(C)c2ccccc2)c2occc2c1C` (stereo not drawn) [Example 50a, 1-[6-Hydroxy-4-methyl-7-(3-RS-phenylbutoxy)-benzofuran-5-yl]-ethanone], the pEC50 was 6.37. In the case of `CC(=O)c1c(OCCN2CCOCC2)c(OCCC(C)c2ccccc2)c2occc2c1C` (stereo not drawn) [Example 50b, 1-[4-Methyl-6-(2-morpholin-4-yl-ethoxy)-7-(3-phenyl-butoxy)-benzofuran-5-yl]-ethanone] it was 7.80. `CC(=O)c1c(OCCN2CCOCC2)c(OCC[C@@H](C)c2ccccc2)c2occc2c1C` [Example 51, 1-[4-Methyl-6-(2-morpholin-4-yl-ethoxy)-7-(3-phenyl-butoxy)-benzofuran-5-yl]-ethanone]: the pEC50 was 7.74.

For `CC(=O)c1c(OCCNC2CCCC2)c(OCCC(C)c2ccccc2)c2occc2c1C` (stereo not drawn) [Example 53, 1-[6-(2-Cyclopentylamino-ethoxy)-4-methyl-7-(3-phenyl-butoxy)-benzofuran-5-yl]-ethanone], the pEC50 is 7.64.

As for `CC(=O)c1c(OCCCC#N)c(OCCCc2ccccc2)c2occc2c1C` [Example 54a, 5-Acetyl-6-(3-cyanopropoxy)-4-methyl-7-(3-phenylpropoxy)benzofuran], the pEC50 was 6.80. The compound `CC(=O)c1c(OCCCc2nnn[nH]2)c(OCCCc2ccccc2)c2occc2c1C` [Example 54b, 5-Acetyl-6-(3-(1H-tetrazol-5-yl)-propoxy)-4-methyl-7-(3-phenylpropoxy)benzofuran] gave a negative logarithm of the EC50 (pEC50) of 5.80. `CC(=O)c1c(OCCc2nnn[nH]2)c(OCCCc2ccccc2)c2occc2c1C` [Example 55, 5-Acetyl-6-(3-(1H-tetrazol-5-yl)-ethoxy)-4-methyl-7-(3-phenylpropoxy)benzofuran] gave a pEC50 of 5.18. The same measure for `CC(=O)c1c(OCCN2CCOCC2)c(OCC(C)(C)Cc2ccccc2)c2occc2c1C` [Example 56b, 5-Acetyl-7-(2,2-dimethyl-3-phenylpropoxy)-4-methyl-6-(2-morpholinoethoxy)benzofuran]: 6.44; for `CC(=O)c1c(OCCN2CCOCC2)c(OC(C)CCc2ccccc2)c2occc2c1C` (stereo not drawn) [Example 57b, 1-[4-Methyl-7-(1-RS-methyl-3-phenyl-propoxy)-6-(2-morpholin-4-yl-ethoxy)-benzofuran-5-yl]-ethanone]: 6.80.

In turn, `CC(=O)c1c(OCCN2CCOCC2)c(OC[C@H]2C[C@@H]2c2ccccc2)c2occc2c1C` [Example 58c, 1-[4-Methyl-6-(2-morpholin-4-yl-ethoxy)-7-(1S,2S-2-phenyl-cyclopropylmethoxy)-benzofuran-5-yl]-ethanone] showed a pEC50 of 7.00.

For `CC(=O)c1c(OCCN2CCOCC2)c(OCC#Cc2ccccc2)c2occc2c1C` [Example 60c, 1-[4-Methyl-6-(2-morpholin-4-yl-ethoxy)-7-(3-phenyl-prop-2-ynyloxy)-benzofuran-5-yl]-ethanone], the pEC50 is 6.48. Compound `CC(=O)c1c(OCCN2CCOCC2)c(OC/C=C/c2ccccc2)c2occc2c1C` [Example 61, 1-[4-Methyl-6-(2-morpholin-4-yl-ethoxy)-7-(E-3-phenyl-allyloxy)-benzofuran-5-yl]-ethanone] showed a pEC50 of 6.66.

The compound `CC(=O)c1c(OCCN2CCOCC2)c(OC[C@H]2O[C@@H]2c2ccccc2)c2occc2c1C` [Example 63, 1-[4-Methyl-6-(2-morpholin-4-yl-ethoxy)-7-(2R,3R-3-phenyl-oxiranylmethoxy)-benzofuran-5-yl]-ethanone] gave a pEC50 of 6.22.

Compound `COc1c(C(C)=O)c(O)c(OCCNc2ccccc2)c2occc12` [Example 64c, 1-[6-Hydroxy-4-methoxy-7-(2-phenylamino-ethoxy)-benzofuran-5-yl]-ethanone] gave a negative logarithm of the EC50 (pEC50) of 6.47. Compound `CC(=O)c1c(C)c2c(c(OCCCc3ccccc3)c1OCCN1CCOCC1)OCC2` [Example 65, 5-Acetyl-6-(2-morpholinoethoxy)-4-methyl-7-(3-phenylpropoxy)-2,3-dihydrobenzofuran] showed a negative logarithm of the EC50 (pEC50) of 6.70.

The compound `CC(=O)c1c(C)c2c(c(OCCC(C)c3ccc(F)cc3)c1OCCNC1CCCC1)OCC2` (stereo not drawn) [Example 67, 1-{6-(2-Cyclopentylamino-ethoxy)-7-[3-RS-(4-fluorophenyl)-butoxy]-4-methyl-2,3-dihydro-benzofuran-5-yl}-ethanone] gave a pEC50 of 8.10.

Compound `CC(=O)c1c(C)c2c(c(CCCCc3ccccc3)c1OCCN1CCOCC1)OCC2` [Example 68, 1-[4-Methyl-6-(2-morpholin-4-yl-ethoxy)-7-(4-phenyl-butyl)-2,3-dihydro-benzofuran-5-yl]-ethanone] gave a pEC50 of 7.70.
